Reference: the kinase profiling compilation of Christmann-Franck et al. (2016)

What was measured:
Experiment in all cases: KINOMEscan competition binding
Conditions in all cases: compound 10.0 µM
STK38 (human) = STK38 (human) (UniProt Q15208)
MET (human) = MET (human) (UniProt P08581)
ICK (human) = ICK (human) (UniProt Q9UPZ9)
[1] = system: PIK3CA (human), P42336 [C420R]
PKN3 (M.tuberculosis) = PKN3 (M.tuberculosis) (UniProt Q6P5Z2)
STK32A (human) = STK32A (human) (UniProt Q8WU08)
CDK13 (human) = CDK13 (human) (UniProt Q14004)
SNRK (human) = SNRK (human) (UniProt Q9NRH2)
CDK4 CCND1 (human) = CDK4 CCND1 (human) (UniProt P11802+P24385)
MAK (human) = MAK (human) (UniProt P20794)
GRK4 (human) = GRK4 (human) (UniProt P32298)
IRAK4 (human) = IRAK4 (human) (UniProt Q9NWZ3)
Sequence of IRAK4 (human) (Q9NWZ3 whole entry, looked up): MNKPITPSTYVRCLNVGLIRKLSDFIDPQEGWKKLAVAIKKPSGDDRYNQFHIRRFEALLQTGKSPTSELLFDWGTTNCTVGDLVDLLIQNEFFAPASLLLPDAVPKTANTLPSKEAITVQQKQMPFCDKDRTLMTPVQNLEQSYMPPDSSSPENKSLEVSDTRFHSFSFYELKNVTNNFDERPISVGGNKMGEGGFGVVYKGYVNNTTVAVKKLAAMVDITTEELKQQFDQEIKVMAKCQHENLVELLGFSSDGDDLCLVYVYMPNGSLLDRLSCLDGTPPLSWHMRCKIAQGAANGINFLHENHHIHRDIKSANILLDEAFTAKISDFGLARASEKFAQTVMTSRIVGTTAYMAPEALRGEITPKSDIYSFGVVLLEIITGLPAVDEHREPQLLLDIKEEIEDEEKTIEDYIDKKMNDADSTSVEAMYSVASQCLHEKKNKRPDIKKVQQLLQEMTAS

PRPF4B (human) = PRPF4B (human) (UniProt Q13523)
CPK1 (P.falciparum) = system: CPK1 (P.falciparum)
HUNK (human) = HUNK (human) (UniProt P57058)
MAP3K6 (human) = MAP3K6 (human) (UniProt O95382)
Sequence of MAP3K6 (human) (O95382 whole entry, looked up): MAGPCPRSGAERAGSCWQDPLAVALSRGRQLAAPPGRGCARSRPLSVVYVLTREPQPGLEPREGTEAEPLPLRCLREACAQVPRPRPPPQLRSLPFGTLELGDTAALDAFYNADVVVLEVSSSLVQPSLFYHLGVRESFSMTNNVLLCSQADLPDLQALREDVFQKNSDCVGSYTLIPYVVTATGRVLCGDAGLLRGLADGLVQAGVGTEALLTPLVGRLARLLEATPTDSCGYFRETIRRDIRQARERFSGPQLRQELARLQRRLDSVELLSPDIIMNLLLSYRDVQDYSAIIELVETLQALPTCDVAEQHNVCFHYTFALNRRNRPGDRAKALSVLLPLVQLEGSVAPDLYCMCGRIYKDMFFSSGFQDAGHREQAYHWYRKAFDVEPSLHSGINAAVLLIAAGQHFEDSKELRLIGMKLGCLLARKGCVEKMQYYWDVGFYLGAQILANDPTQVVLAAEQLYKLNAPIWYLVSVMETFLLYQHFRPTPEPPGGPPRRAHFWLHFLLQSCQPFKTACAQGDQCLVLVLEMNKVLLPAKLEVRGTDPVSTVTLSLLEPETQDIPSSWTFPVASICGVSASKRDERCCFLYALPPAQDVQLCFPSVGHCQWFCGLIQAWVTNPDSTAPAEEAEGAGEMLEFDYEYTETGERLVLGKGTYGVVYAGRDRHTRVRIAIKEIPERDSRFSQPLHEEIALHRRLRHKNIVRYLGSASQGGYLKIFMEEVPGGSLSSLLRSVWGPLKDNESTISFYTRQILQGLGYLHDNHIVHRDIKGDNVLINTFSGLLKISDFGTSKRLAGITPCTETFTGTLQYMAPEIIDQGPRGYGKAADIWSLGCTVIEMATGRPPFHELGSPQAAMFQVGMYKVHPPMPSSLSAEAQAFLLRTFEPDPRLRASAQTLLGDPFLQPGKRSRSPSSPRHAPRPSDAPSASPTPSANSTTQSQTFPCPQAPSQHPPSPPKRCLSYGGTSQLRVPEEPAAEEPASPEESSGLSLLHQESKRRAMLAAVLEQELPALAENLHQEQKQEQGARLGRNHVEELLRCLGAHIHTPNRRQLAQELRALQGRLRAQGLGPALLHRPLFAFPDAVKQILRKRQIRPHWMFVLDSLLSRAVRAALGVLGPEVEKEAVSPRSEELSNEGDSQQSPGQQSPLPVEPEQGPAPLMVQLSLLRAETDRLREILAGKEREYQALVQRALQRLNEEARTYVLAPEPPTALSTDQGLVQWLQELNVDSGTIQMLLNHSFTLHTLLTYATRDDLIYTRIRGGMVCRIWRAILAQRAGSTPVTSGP

DSTYK (human) = DSTYK (human) (UniProt Q6XUX3)
PIP4K2C (human) = PIP4K2C (human) (UniProt Q8TBX8)
Sequence of PIP4K2C (human) (Q8TBX8 whole entry, looked up): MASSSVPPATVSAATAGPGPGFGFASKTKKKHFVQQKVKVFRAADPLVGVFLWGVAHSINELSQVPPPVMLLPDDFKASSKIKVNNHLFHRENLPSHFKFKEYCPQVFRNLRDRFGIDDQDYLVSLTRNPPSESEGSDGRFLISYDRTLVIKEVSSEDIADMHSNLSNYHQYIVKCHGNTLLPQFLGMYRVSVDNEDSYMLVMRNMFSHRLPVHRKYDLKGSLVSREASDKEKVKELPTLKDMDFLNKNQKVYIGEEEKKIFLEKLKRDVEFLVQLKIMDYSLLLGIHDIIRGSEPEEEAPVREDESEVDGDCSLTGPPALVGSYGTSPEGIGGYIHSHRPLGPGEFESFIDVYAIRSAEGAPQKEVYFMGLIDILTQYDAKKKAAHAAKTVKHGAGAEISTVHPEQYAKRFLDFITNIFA

DDR1 (human) = DDR1 (human) (UniProt Q08345)
IRAK1 (human) = IRAK1 (human) (UniProt P51617)
TRPM6 (human) = TRPM6 (human) (UniProt Q9BX84)
PIP5K1C (human) = PIP5K1C (human) (UniProt O60331)
PIK3C2G (human) = PIK3C2G (human) (UniProt O75747)
CDK4 CCND3 (human) = CDK4 CCND3 (human) (UniProt P11802+P30281)
VRK2 (human) = VRK2 (human) (UniProt Q86Y07)
NEK4 (human) = NEK4 (human) (UniProt P51957)
NIM1 (human) = NIM1 (human) (UniProt Q8IY84)
Sequence of NIM1 (human) (Q8IY84 whole entry, looked up): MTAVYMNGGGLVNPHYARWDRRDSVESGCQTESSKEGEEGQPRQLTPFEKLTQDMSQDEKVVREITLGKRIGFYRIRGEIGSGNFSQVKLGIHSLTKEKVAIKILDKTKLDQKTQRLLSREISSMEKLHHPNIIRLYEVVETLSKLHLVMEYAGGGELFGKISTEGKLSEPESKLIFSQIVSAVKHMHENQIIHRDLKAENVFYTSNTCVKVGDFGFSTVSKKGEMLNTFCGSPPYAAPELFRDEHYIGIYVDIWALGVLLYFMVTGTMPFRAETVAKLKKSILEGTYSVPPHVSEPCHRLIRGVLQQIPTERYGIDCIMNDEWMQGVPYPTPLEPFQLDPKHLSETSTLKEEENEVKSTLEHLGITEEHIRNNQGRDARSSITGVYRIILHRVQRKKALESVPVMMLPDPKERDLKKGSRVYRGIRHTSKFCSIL

EGFR (human) = EGFR (human) (UniProt P00533)
TAOK2 (human) = TAOK2 (human) (UniProt Q9UL54)
Sequence of TAOK2 (human) (Q9UL54 whole entry, looked up): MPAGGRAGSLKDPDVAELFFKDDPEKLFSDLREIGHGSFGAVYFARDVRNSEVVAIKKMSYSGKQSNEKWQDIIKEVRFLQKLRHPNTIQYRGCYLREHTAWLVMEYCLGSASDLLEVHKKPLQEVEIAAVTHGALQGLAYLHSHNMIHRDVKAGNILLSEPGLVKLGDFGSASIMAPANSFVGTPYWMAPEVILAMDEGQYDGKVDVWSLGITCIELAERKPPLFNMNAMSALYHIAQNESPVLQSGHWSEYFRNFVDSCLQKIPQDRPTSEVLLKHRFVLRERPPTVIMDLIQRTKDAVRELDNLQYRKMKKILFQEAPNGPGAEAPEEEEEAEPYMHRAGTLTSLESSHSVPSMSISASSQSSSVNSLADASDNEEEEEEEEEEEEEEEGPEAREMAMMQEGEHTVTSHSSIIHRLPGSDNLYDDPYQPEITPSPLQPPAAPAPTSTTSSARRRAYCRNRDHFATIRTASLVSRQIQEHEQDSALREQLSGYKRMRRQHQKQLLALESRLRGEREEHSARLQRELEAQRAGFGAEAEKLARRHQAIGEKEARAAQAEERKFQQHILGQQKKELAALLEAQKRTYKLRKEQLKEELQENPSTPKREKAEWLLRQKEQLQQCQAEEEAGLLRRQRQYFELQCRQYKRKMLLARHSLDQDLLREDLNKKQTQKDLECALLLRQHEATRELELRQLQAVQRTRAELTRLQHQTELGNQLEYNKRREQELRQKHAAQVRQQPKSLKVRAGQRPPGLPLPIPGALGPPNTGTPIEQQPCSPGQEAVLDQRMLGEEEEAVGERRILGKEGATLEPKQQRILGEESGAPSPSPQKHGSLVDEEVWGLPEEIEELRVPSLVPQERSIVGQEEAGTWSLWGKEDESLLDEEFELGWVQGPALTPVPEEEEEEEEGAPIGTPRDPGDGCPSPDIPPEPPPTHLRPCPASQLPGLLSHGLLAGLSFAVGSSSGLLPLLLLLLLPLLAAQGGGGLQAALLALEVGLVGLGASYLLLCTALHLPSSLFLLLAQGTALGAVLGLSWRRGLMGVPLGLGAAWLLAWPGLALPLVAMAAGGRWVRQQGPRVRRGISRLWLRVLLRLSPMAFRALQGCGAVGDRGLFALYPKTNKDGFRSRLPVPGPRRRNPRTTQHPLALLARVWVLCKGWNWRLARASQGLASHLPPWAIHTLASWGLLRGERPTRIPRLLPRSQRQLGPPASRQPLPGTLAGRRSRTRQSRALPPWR

DYRK1A (human) = DYRK1A (human) (UniProt Q13627)
CDKL3 (human) = CDKL3 (human) (UniProt Q8IVW4)
PRKCI (human) = PRKCI (human) (UniProt P41743)
PLK2 (human) = PLK2 (human) (UniProt Q9NYY3)
GRK1 (human) = GRK1 (human) (UniProt Q15835)
STK39 (human) = STK39 (human) (UniProt Q9UEW8)
MAP2K5 (human) = MAP2K5 (human) (UniProt Q13163)
Sequence of MAP2K5 (human) (Q13163 whole entry, looked up): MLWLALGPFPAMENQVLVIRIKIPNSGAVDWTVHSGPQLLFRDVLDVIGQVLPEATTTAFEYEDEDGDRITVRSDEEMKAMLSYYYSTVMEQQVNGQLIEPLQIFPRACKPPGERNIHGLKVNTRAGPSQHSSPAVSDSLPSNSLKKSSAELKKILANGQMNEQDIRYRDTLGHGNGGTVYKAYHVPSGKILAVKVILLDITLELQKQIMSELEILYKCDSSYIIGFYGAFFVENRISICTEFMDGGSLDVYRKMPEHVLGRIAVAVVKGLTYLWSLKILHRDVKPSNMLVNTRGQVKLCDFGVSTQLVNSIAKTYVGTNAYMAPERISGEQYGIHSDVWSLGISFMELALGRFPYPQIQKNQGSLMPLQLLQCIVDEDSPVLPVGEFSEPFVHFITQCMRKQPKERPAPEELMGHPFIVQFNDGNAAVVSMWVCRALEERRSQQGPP

[2] = system: EGFR (human), P00533 [G719S]
BTK (human) = BTK (human) (UniProt Q06187)
[3] = system: EGFR (human), P00533 [L861Q]
PIK3CA (human) = PIK3CA (human) (UniProt P42336)

Sequence of STK32A (human) (Q8WU08 whole entry, looked up): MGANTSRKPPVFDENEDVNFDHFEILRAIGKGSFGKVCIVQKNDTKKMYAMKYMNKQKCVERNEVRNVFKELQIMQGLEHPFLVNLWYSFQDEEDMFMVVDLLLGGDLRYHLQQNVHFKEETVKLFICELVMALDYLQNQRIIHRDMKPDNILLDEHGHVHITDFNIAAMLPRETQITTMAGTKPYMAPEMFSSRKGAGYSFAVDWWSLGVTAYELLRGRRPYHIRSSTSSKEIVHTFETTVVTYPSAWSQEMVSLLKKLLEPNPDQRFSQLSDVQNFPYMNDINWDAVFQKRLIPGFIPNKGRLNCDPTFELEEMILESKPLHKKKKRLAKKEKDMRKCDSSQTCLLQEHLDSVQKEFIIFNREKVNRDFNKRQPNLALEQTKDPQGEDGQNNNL

SMILES	kinase still bound, per cent of control (STK38 (human)) [%]	kinase still bound, per cent of control (MET (human)) [%]	kinase still bound, per cent of control (ICK (human)) [%]	kinase still bound, per cent of control (PKN3 (M.tuberculosis)) [%]	kinase still bound, per cent of control (STK32A (human)) [%]	kinase still bound, per cent of control (CDK13 (human)) [%]	kinase still bound, per cent of control (SNRK (human)) [%]	kinase still bound, per cent of control (CDK4 CCND1 (human)) [%]	kinase still bound, per cent of control (MAK (human)) [%]	kinase still bound, per cent of control (GRK4 (human)) [%]	kinase still bound, per cent of control (IRAK4 (human)) [%]	kinase still bound, per cent of control (PRPF4B (human)) [%]	kinase still bound, per cent of control (CPK1 (P.falciparum)) [%]	kinase still bound, per cent of control (HUNK (human)) [%]	kinase still bound, per cent of control (MAP3K6 (human)) [%]	kinase still bound, per cent of control (DSTYK (human)) [%]	kinase still bound, per cent of control (PIP4K2C (human)) [%]	kinase still bound, per cent of control (DDR1 (human)) [%]	kinase still bound, per cent of control (IRAK1 (human)) [%]	kinase still bound, per cent of control (TRPM6 (human)) [%]	other results
CCC(=O)N1CCN(c2ccc(-n3c(=O)ccc4cnc5ccc(-c6cnc7ccccc7c6)cc5c43)cc2C(F)(F)F)CC1	100	84	100	64	100	80	60	100	68	90	90	100	36	91	100	28	58	100	100	100	kinase still bound, per cent of control [1]: 0.7%; kinase still bound, per cent of control (PIP5K1C (human)): 80%; kinase still bound, per cent of control (PIK3C2G (human)): 11%; kinase still bound, per cent of control (CDK4 CCND3 (human)): 87%; kinase still bound, per cent of control (VRK2 (human)): 100%; kinase still bound, per cent of control (NEK4 (human)): 86%; kinase still bound, per cent of control (NIM1 (human)): 84%; kinase still bound, per cent of control (EGFR (human)): 85%; kinase still bound, per cent of control (TAOK2 (human)): 84%; kinase still bound, per cent of control (DYRK1A (human)): 71%; kinase still bound, per cent of control (CDKL3 (human)): 92%; kinase still bound, per cent of control (PRKCI (human)): 85%; kinase still bound, per cent of control (PLK2 (human)): 85%; kinase still bound, per cent of control (GRK1 (human)): 99%; kinase still bound, per cent of control (STK39 (human)): 100%; kinase still bound, per cent of control (MAP2K5 (human)): 100%
Cc1cc([C@@H](C)Nc2ccccc2C(=O)O)c2nc(N3CCOCC3)cc(=O)n2c1	100	86	100	98	89	88	89	100	67	90	100	71	62	81	95	100	58	100	90	100	kinase still bound, per cent of control [2]: 98%; kinase still bound, per cent of control (PIP5K1C (human)): 63%; kinase still bound, per cent of control (PIK3C2G (human)): 7%; kinase still bound, per cent of control (CDK4 CCND3 (human)): 100%; kinase still bound, per cent of control (VRK2 (human)): 100%; kinase still bound, per cent of control (NEK4 (human)): 61%; kinase still bound, per cent of control (NIM1 (human)): 100%; kinase still bound, per cent of control (BTK (human)): 97%; kinase still bound, per cent of control (EGFR (human)): 96%; kinase still bound, per cent of control (TAOK2 (human)): 94%; kinase still bound, per cent of control (DYRK1A (human)): 90%; kinase still bound, per cent of control (CDKL3 (human)): 90%; kinase still bound, per cent of control (PRKCI (human)): 100%; kinase still bound, per cent of control (PLK2 (human)): 99%; kinase still bound, per cent of control (GRK1 (human)): 100%; kinase still bound, per cent of control (STK39 (human)): 100%; kinase still bound, per cent of control [3]: 100%; kinase still bound, per cent of control (MAP2K5 (human)): 100%
N#Cc1c(NC(=O)c2cccc3ccccc23)sc2c1CCCC2	100	66	81	100	81	87	100	100	56	100	100	100	81	95	93	100	100	71	100	100	kinase still bound, per cent of control [1]: 92%; kinase still bound, per cent of control (PIK3CA (human)): 99%; kinase still bound, per cent of control (PIP5K1C (human)): 100%; kinase still bound, per cent of control (PIK3C2G (human)): 87%; kinase still bound, per cent of control (CDK4 CCND3 (human)): 84%; kinase still bound, per cent of control (VRK2 (human)): 100%; kinase still bound, per cent of control (NEK4 (human)): 76%; kinase still bound, per cent of control (NIM1 (human)): 100%; kinase still bound, per cent of control (BTK (human)): 90%; kinase still bound, per cent of control (TAOK2 (human)): 100%; kinase still bound, per cent of control (DYRK1A (human)): 100%; kinase still bound, per cent of control (CDKL3 (human)): 82%; kinase still bound, per cent of control (PRKCI (human)): 63%; kinase still bound, per cent of control (PLK2 (human)): 100%; kinase still bound, per cent of control (GRK1 (human)): 100%; kinase still bound, per cent of control (STK39 (human)): 100%; kinase still bound, per cent of control (MAP2K5 (human)): 100%
